Results published in PubChem BioAssay AID179 (DTP/NCI, 2004).
Activity calls are given as the source filed them.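 Rule for the calls: active = compounds giving half or more protection of infected cells from virus-caused growth loss, again on retest; inactive = the rest.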 Where a SMILES comes first, the peptide text is derived from it. [ ]: non-standard residue; d: D form. The star is where a group is joined. ξ: configuration not given here. Boc = CC(C)(C)OC(=O)*; ξV = CC(C)C(N)C(=O)O; OBn = c1ccc(CO*)cc1

Tested on: CEM cells HIV-1 protection, formazan growth assay
Experiment: NCI AIDS Antiviral Assay
Details: for IC50: measured here: growth of uninfected CEM cells
Outline: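 Steps: treat uninfected and HIV-1-infected human CEM cells at five drug levels; quantify growth by soluble formazan; retest any compound reaching 50% protection; classify actives from the retest.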

Compound | outcome | EC50 [µM] | IC50 [µM]
COc1cc(N=Nc2ccccc2C(=O)[O-])cc(/C=N/NC(N)=S)c1[O-].[O]=[Mo]=[O].[O]=[Mo]=[O] | inactive |  | 
CCN(CC)CCOc1ccc(/C=C(\C#N)c2ccc(OC)cc2)cc1 |  | > 200 | 2.14
CCOC(C[C@H](O)[C@H]1COC(=S)S1)OCC |  | 135 | > 200
N#Cc1cc2c(n(NS(=O)(=O)c3ccccc3)c1=O)CCCC2 |  | > 200 | > 200
N/N=C(\C(=O)Nc1c(Cl)cc([N+](=O)[O-])cc1Cl)C(c1cnc2ccc([N+](=O)[O-])cc2n1)[N+](=O)[O-] (stereo unspecified) |  | > 70.8 | > 70.8
O=C(O)c1ccccc1/C=N\NC1=NCCCCN1 |  | > 200 | > 200
Nc1nc(NCC2(CO)CC2)cc(=O)[nH]1 |  | > 200 | > 200
O=C(NNC(=O)c1ccc([N+](=O)[O-])cc1)c1ccc([N+](=O)[O-])cc1 |  | > 200 | > 200
COC(=O)c1cc(C(=CCCC(C)[C@H]2CCC3C4CC[C@@H]5CC(F)(F)CC[C@]5(C)C4CC[C@@]32C)c2cc(Cl)c(OC)c(C(=O)OC)c2)cc(Cl)c1OC (stereo partly specified) |  | > 100 | > 100
NC(=O)c1nnc2c(F)cccc2c1N |  | > 200 | 182
Cc1cn(C2CC(O[Si](C)(C)C(C)(C)C)C(CN(O)C(N)=O)O2)c(=O)[nH]c1=O (stereo unspecified) |  | > 200 | > 200
COc1ccc(C[C@H]2COC(=O)[C@@H]2Cc2ccc(O)c(O)c2)cc1OC |  | > 200 | 19.5
CCN(CC)CCN1C(=O)c2cccc3cccc(c23)C1=O |  | > 200 | 9.77
O=C1CSC(=S)N1c1ccc(Cl)cc1 |  | > 148 | 56.2
CC(=O)c1cccc(C(C)=O)c1N=Cc1ccc(Cl)cc1 |  | > 200 | 13.2
CCOC(=O)C1C(c2ccc(Br)cc2)N(Cc2ccccc2)C(c2ccc(Br)cc2)C(C(=O)OC)S1(=O)=O (stereo unspecified) |  | > 2.19 | > 2.19
O=C1C(=Cc2ccccc2O)N=C(c2ccccc2)N1n1c(-c2ccccc2)nc2ccccc2c1=O |  | > 200 | 10.2
Clc1ccc(SSc2ccc(Cl)cn2)nc1 |  | > 200 | 20.4
COc1ccc(C(c2cc(OC)c(OC)c(OC)c2)N2C(=O)CCC2C(=O)O)cc1 (stereo unspecified) |  | > 200 | 33.1
COCCOC(C)C(=O)C(O)S(=O)(=O)O (stereo unspecified) |  | > 200 | 186
Cn1c(=O)c2nc(-c3ccccc3)nnc2n(C)c1=O |  | > 200 | 93.3
C=CCC[CH2][Sn]([c]1ccccc1)([c]1ccccc1)[c]1ccccc1 | inactive |  | 
CC(=O)/C(=C/n1c(=S)[nH]c2ccc([N+](=O)[O-])cc21)C(=O)Nc1ccc(Cl)cc1 |  | > 100 | > 100
O=C1CC2CCC(C1)N2CC1COc2ccccc2O1 (stereo unspecified) |  | > 200 | > 200
CC(Cl)c1nc2c(c(=O)[nH]1)C1CCCCCCCN1C(=S)N2C (stereo unspecified) |  | > 200 | 12.3
O=C(O)CN1C=C(C(=O)c2cc3ccccc3n2S(=O)(=O)c2ccccc2)CCC1 |  | > 200 | 89.1

Compound | outcome | EC50 [µM] | IC50 [µM]
O=C(OCCOCCOC(=O)c1c[nH]cc1-c1ccccc1)c1c[nH]cc1-c1ccccc1 | inactive |  | 
C/C(CC(O)(C(F)(F)F)C(F)(F)F)=N/Nc1ccc([N+](=O)[O-])cc1[N+](=O)[O-] |  | > 200 | 1.41
NCC(O)c1ccc(Nc2ccnc3cc(Cl)ccc23)cc1 (stereo unspecified) |  | > 93.3 | 38
CCOCC(=O)N[C@H]1CCc2cc(OC)c(OC)c(OC)c2-c2ccc(SC)c(=O)cc21 |  | > 0.2 | 0.00115
CCC(/C(=N\Nc1c(Cl)cc(Cl)cc1Cl)c1ccccc1)n1ccnc1C (stereo unspecified) | inactive |  | 
COc1ccc(C2ON(c3ccccc3)CC=C2C)cc1 (stereo unspecified) |  | > 35.5 | > 35.5
O=C(O)C1=C(C(=O)O)C2CCC1C2 |  | > 200 | > 200
CCOc1ccccc1NC(=O)C(=O)CC(=O)c1sc(Nc2nnc(-c3ccc(Cl)c(Cl)c3)o2)nc1C |  | > 33.9 | > 33.9
N#C/C(=C/c1cccc2ccccc12)C(=O)c1ccccc1 |  | > 13.2 | > 13.2
COc1ccc2c(c1O)-c1c(O)cccc1CCN(C)CC2 |  | > 200 | > 200
COc1ccc2c(c1)C(=O)CC(C(=O)O)C2 (stereo unspecified) |  | > 1120 | > 1120
C#CCNC(=O)NCCCC(NC(C)=O)C(=O)NCc1ccccc1 (stereo unspecified) | inactive |  | 
CCCCCCCCCCCC1OC[C@H]2O[C@@H](n3cc(C)c(=O)[nH]c3=O)C[C@H]2N1O (stereo partly specified) |  | > 200 | 21.9
C#CCn1c(=O)c2ccccc2n(CC#C)c1=O |  | > 200 | > 200
CCC[CH2][Sn]([Cl])([CH2]CCC)[CH2]CCC | inactive |  | 
CC(C)C(NC(=O)OC(C)(C)C)C(=O)NCC(=O)OCc1ccccc1 (stereo unspecified) (Boc-[ξV]-Gly-OBn) |  | > 200 | 28.2
C=CC1(CC/C(=C\[N+](=O)[O-])c2ccc(OC)c(OC)c2)OCC(C)(C)CO1 |  | > 200 | 17.4
Cc1cc(NS(=O)(=O)c2ccc(Nc3c4ccccc4nc4c(C(=O)O)cccc34)cc2)no1 |  | > 200 | 178
CC(=O)NC1C(OCC(=O)NC(C)C(=O)NC(CCC(=O)NCCCCCNc2ccc([N+](=O)[O-])c3[nH]c4ccccc4c(=O)c23)C(N)=O)C(O)C(CO)OC1(C)OCc1ccccc1 (stereo unspecified) |  | > 100 | 3.39
C[C@@H](c1ccccc1)n1c(N)c(C#N)c2ccc([N+](=O)[O-])cc2c1=O |  | > 200 | 12.3
C(=C1/CCCCC([n+]2ccccc2)=N1)/c1ccccc1 | inactive |  | 
C1#CCCCCCCC#CCCCCC1.[C-]#[O+].[C-]#[O+].[C-]#[O+].[C-]#[O+].[C-]#[O+].[C-]#[O+].[C-]#[O+].[C-]#[O+].[C-]#[O+].[C-]#[O+].[C-]#[O+].[C-]#[O+].[Co].[Co].[Co].[Co] |  | > 2.57 | > 2.57
COc1ccc(CCN2CCc3c(C)c(C#N)c4nc5ccccc5n4c32)cc1OC |  | > 200 | 53.7
C=C(C)C1C/C=C(/C)CCCC2(CCC3=C(CC(C(=C)C)C/C=C(/C)CCC3)O2)C(=O)C1 (stereo unspecified) |  | > 30.9 | > 30.9
CCOP(=O)(OCC)/C(C#N)=C/c1cccc(Oc2ccccc2)c1 |  | > 52.5 | 30.2
O=S(=O)(N1CCCCN(S(=O)(=O)C(F)(F)F)CCCN(S(=O)(=O)C(F)(F)F)CCCN(S(=O)(=O)C(F)(F)F)CCCCN(S(=O)(=O)C(F)(F)F)CCCN(S(=O)(=O)C(F)(F)F)CCC1)C(F)(F)F |  | > 200 | > 200

Compound | outcome | EC50 [µM] | IC50 [µM]
CO[C@H]1/C=C/O[C@@]2(C)Oc3c(C)c(O)c4c(O)c(c(/C=N/N5CCN(C)CC5)c(O)c4c3C2=O)NC(=O)/C(C)=C\C=C\[C@H](C)[C@H](O)[C@@H](C)[C@@H](O)[C@@H](C)[C@H](OC(C)=O)[C@@H]1C |  | > 151 | 93.3
O=CN/C=C/c1ccccc1O |  | > 200 | > 200
O=C(/C=C/c1ccccc1[N+](=O)[O-])c1ccccc1 |  | > 39.8 | 6.92
COC(=O)N/N=C(\C)CC(=O)Nc1cccc([N+](=O)[O-])c1 |  | > 447 | > 447
O=[N+]([O-])c1ccc2nc3n(c2c1)C(c1c(F)cccc1F)SC3 (stereo unspecified) |  | > 200 | > 200
C=CCC(/C=C\CC)(C(=O)O)C(=O)O |  | > 661 | > 661
C=C1CCC([N+](=O)[O-])[C@](C)(N=O)CC[C@@H]2C1CC2(C)C (stereo partly specified) |  | > 200 | 17
CCC(=O)[O-].CCC(=O)[O-].N.N.N.N.[Co+3].[O-][Cl+3]([O-])([O-])[O-] | inactive |  | 
O=C(Nc1ccccc1)O/N=C1/CCCC/C1=C\c1ccccc1 |  | > 42.7 | 39.8
CN(CCS(=O)(=O)N1C(=O)C2CCCN2C(=O)[C@@H]1Cc1ccccc1)C(=O)OCc1ccccc1 (stereo partly specified) |  | > 50.1 | > 50.1
O=C(O)C(CSC(c1ccccc1)(c1ccccc1)c1ccccc1)N=Cc1cccs1 (stereo unspecified) |  | > 200 | 2.04
COC(=O)C1=C(C(=O)OC)SC(=C2C(=O)c3ccccc3-c3ccccc32)S1 | inactive |  | 
COc1ccc(N2C(=O)C3c4[nH]c5ccc(OC)cc5c4C4CCC(C(C)C)CC4C3C2=O)cc1 (stereo unspecified) |  | > 50.1 | > 50.1
O=C1CN(CCO)CC(=O)N2Cc3ccccc3CN12 | inactive |  | 
CCOC(=O)c1c[nH]c2oc(/C=N/N3CC(CN4CCOCC4)OC3=O)cc2c1=O (stereo unspecified) |  | > 302 | 162
O=C(c1ccccc1SSc1ccccc1C(=O)N1CSC[C@@H]1CO)N1CSC[C@H]1CO |  | > 200 | 107
COc1ccccc1NC(=S)NN=C(C)c1cccc(C(C)=NNC(=S)Nc2ccccc2OC)n1 |  | > 200 | 34.7
N#Cc1c2c(c(Cl)n3c1nc1ccccc13)CCCC2 |  | > 3.72 | > 3.72
CC(C)(C)c1cc(/C=C\C(=O)c2ccc([N+](=O)[O-])cc2)cc(C(C)(C)C)c1O |  | > 10 | > 10
Cc1cc2c(cc1Br)C1(C)CCC(C)C1(C)O2 (stereo unspecified) |  | > 50.1 | > 50.1
CC(=O)Oc1ccc2c(C)cc(=O)oc2c1OC(C)=O |  | > 200 | 69.2
Nc1ncnc2c1ncn2[C@@H]1C[C@H]1CO |  | > 200 | > 200
CN(O)C(=O)Cc1ccccc1 |  | > 15.1 | > 15.1
O=C1NC(=O)C(=Cc2ccccc2F)C(=O)N1 |  | > 1070 | > 1070
CC(=O)NNc1nc(C)c(C(/C=C/c2ccc(Cl)cc2)=N/NC(=S)NN)s1 |  | > 44.7 | > 44.7
O=C(CCc1nnc2s/c(=C\c3ccc(Cl)cc3Cl)c(=O)n12)Nc1cc(Cl)c(Cl)cc1Cl |  | > 13.2 | > 13.2
